Measurements reported in patent US20110224229A1, “Novel Crystalline Form” (AstraZeneca AB, priority 2010, published 2011).
Entries after “also recorded” stand apart in the source; their conditions may differ.

Key:
[1] = Slurrying in water or solvents, hydrate/solvate formation; type: physicochemical
[2] = Humidity interaction, Gravimetrical Vapour Sorption (GVS); type: physicochemical; details: for hygroscopicity, defined as the water uptake by a dried sample when the relative humidity is increased from 0% to 80%: 0% to 80% RH at 25° C.; for hygroscopicity (in words) / water uptake following exposure to 80% relative humidity (RH): GVS, 80% RH
Protocol: The gravimetric responses of test samples to changes in humidity were investigated using a TGA 5000 (TA Instruments) Gravimetrical Vapour Sorption (GVS). The temperature was held at 25° C. throughout the experiments. The relative humidity (RH) was raised in steps (of 5 or 10%) up to 90% RH and lowered back to 0% RH in two cycles. Each level of RH was held until the equilibrium condition (sample weight change<0.0005 wt % per 10 minutes) was reached. 5-10 mg of the test sample was placed in the cup and evaluated. The hygroscopicity was calculated as the relative change in weight of the sample between 0% RH at the start of the second cycle and 80% RH during the increase of humidity in the second cycle.
The hygroscopicity of a sample is dependent on factors in addition to the inherent properties of the pure solid form itself, for example the purity and the crystallinity of the sample will have some impact on the result.

[3] = molecular target: T1, Human Neutrophil Elastase (HNE) (Homo sapiens, UniProt P08246); assay: Human Neutrophil Elastase Quenched-FRET Assay; type: biochemical; details: compound dissolved in DMSO; n=7; read-out: IC50 value for inhibition of human neutrophil elastase activity
T1 construct: Human Neutrophil Elastase (HNE) purified from serum; purchased Calbiochem 324681; host or cells: natural source
T1 sequence (P08246 30-267): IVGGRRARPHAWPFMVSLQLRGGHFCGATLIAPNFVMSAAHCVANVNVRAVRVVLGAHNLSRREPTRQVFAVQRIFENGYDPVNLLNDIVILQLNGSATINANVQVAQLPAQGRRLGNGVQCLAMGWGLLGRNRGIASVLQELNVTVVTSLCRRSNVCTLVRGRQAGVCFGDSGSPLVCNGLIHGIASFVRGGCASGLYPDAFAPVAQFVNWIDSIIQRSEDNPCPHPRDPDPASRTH
Protocol: The assay uses Human Neutrophil Elastase (HNE) purified from serum (Calbiochem art. 324681; Ref. Baugh, R. J. et al., 1976, Biochemistry. 15, 836-841). HNE was stored in 50 mM sodium acetate (NaOAc), 500 mM sodium chloride (NaCl), pH 5.5 with added 50% glycerol at −20° C. The protease substrate used was Elastase Substrate V Fluorogenic, MeOSuc-AAPV-AMC (Calbiochem art. 324740; Ref. Castillo, M. J. et al., 1979, Anal. Biochem. 99, 53-64). The substrate was stored in dimethyl sulfoxide (DMSO) at −20° C. The assay additions were as follows: Test compounds and controls were added to black 96-well flat-bottom plates (Greiner 655076), 1.0 μL in 100% DMSO, followed by 30 μL HNE in assay buffer with 0.01% Triton (trade mark) X-100 detergent. The assay buffer constitution was: 100 mM Tris(hydroxymethyl)aminomethane (TRIS) (pH 7.5) and 500 mM NaCl. The enzyme and the compounds were incubated at room temperature for 15 minutes. Then 30 μl substrate in assay buffer was added. The assay was incubated for 90 minutes at room temperature. The concentrations of HNE enzyme and substrate during the incubation were 0.17 nM and 100 μM, respectively. […] Fluorescence was measured on a Wallac EnVision instrument at settings: Excitation 380 nm, Emission 460 nm. IC50 values were determined using Xlfit curve fitting using model 203.

Row | hygroscopicity, defined as the water uptake by a dried sample when the relative humidity is increased from 0% to 80% [2] | water uptake following exposure to 80% relative humidity (RH) [2] | hydrate formation when slurried in water ([1]; slurried in water for 4 weeks) | IC50 [3] | Compound | solvate/hydrate formation when slurried in water, ethanol or acetonitrile ([1]; slurried in water, ethanol or acetonitrile, XRPD) | hygroscopicity (in words) [2]
1 | 1.6 % (w/w) | about 1.6 % by weight | – | – | CCNC(=O)c1nc(-c2ccnn2-c2ccc(C#N)cc2)c(C)n(-c2cccc(C(F)(F)F)c2)c1=O [Compound (I) Form A, 6-[2-(4-Cyano-phenyl)-2H-pyrazol-3-yl]-5-methyl-3-oxo-4-(3-trifluoromethyl-phenyl)-3,4-dihydro-pyrazine-2-carboxylic acid ethylamide Form A] | forms variable, non-stoichiometric solvates with acetonitrile or ethanol and hydrates with water | slightly hygroscopic; also recorded: non-hygroscopic
2 | 0.08 % (w/w) | about 0.08 % by weight | did not form hydrates | – | CCNC(=O)c1nc(-c2ccnn2-c2ccc(C#N)cc2)c(C)n(-c2cccc(C(F)(F)F)c2)c1=O [Compound (I) Form B, 6-[2-(4-Cyano-phenyl)-2H-pyrazol-3-yl]-5-methyl-3-oxo-4-(3-trifluoromethyl-phenyl)-3,4-dihydro-pyrazine-2-carboxylic acid ethylamide Form B] | – | substantially non-hygroscopic
3 | – | – | – | 0.27 nM | CCNC(=O)c1nc(-c2ccnn2-c2ccc(C#N)cc2)c(C)n(-c2cccc(C(F)(F)F)c2)c1=O [Compound (I), 6-[2-(4-Cyano-phenyl)-2H-pyrazol-3-yl]-5-methyl-3-oxo-4-(3-trifluoromethyl-phenyl)-3,4-dihydro-pyrazine-2-carboxylic acid ethylamide] | – | –
